{"source": "patent US20240277767A1", "about": "“METHODS AND USES” (PROLEUKOCYTE AB, priority 2021, published 2024)", "key": {"[1]": {"tested_on": "Nrf2 target genes (NQO1, HMOX1, TXNRD1, Keap1)", "test": "qPCR of classical Nrf2 target genes in NK cells", "type": "cell-based, human", "protocol": "Lymphocytes were pre-treated with AUF, SUL or DMF as described above. RNA was isolated using TRIzol™ Plus RNA Purification Kit (Invitrogen). cDNA was generated using the iScript™ cDNA Synthesis Kit (Bio-Rad) and qPCR was done using iTaq™ Universal SYBR® Green Supermix (Bio-Rad) in the CFX96 Touch Real-Time PCR Detection System (Bio-Rad). Fold change expression from untreated cells was calculated using the 2^-ΔΔCt formula with b-actin as reference gene. Evaluated genes were NAD(P)H Quinone Dehydrogenase 1 (NQO1), Kelch Like ECH Associated Protein 1 (Keap1), Heme Oxygenase 1 (HMOX1) and Thioredoxin Reductase 1 (TXNRD1)."}, "cancer cells": {"tested_on": "cancer cells", "conditions": "high doses (Stafford et al., 2018; Rigobello et al., 2008); cited from earlier work"}, "NK cells [2]": {"tested_on": "NK cells", "test": "Intracellular ROS levels in NK cells (CellROX, flow cytometry)", "type": "cell-based, human", "protocol": "For Nrf2 inhibition, NK cells were treated with 50 μM ML-385 (Sigma-Aldrich) in parallel. For H2O2 treatment, lymphocyte cells were washed and resuspended to 1×10^6 cells/mL in medium and exposed to indicated H2O2 (Sigma-Aldrich) concentration for 1 h at 37° C. Cells were washed with medium and then used for further experiments. For monocyte experiments, autologous NK cell-monocytes or TIL-monocytes were used. NK cells/TIL were isolated and pre-treated with 0.5 μg/mL AUF, as described above, and co-cultured with unstimulated at the ratio, 1:2 M:NK, or stimulated monocytes at the ratio, 1:1 M:NK, if not indicated otherwise. Stimulated monocytes were activated with 100 ng/ml PMA for 1 min, washed and added at indicated ratio, the number of NK cell/TIL was kept constant. As control, H2O2 was used at indicated concentration. Cells were co-cultured for 2 h and then effector cells were stained for intracellular ROS (see flow cytometry) or used as effector cells in Cr^51 release assay (E:T ratio 10:1).\nFor detection of intracellular ROS levels, for NK cells CellROX™ Deep Red Reagent (Invitrogen) were used. Briefly, NK cells were stained with 2.5 μM CellROX solution in RPMI for 30 min at 37° C. and then stained for flow cytometry with anti-CD56 and anti-CD3 (both Biolegend)."}, "KADA TIL": {"tested_on": "KADA TIL", "test": "Quantification of CD4+ T cells and Tregs in AUF pre-treated KADA TIL (flow cytometry)", "type": "cell-based, human", "conditions": "AUF 0.5 μg/mL", "protocol": "Tregs were defined as CD3+CD4+ FoxP3+. Directly after the treatment, TIL were stimulated for six hours with PMA/Ionomycin or autologous tumor cells and then stained for intracellular cytokines IL-10 (C) and TGFβ (D).\nLymphocytes were pre-treated for 18 h with Auranofin (AUF, with the concentration 1 μg/mL for NK cells and 0.5 μg/mL for TIL. As AUF was reconstituted in DMSO, control NK cells were pre-treated with DMSO with an equivalent volume to the highest compound concentration. For N-acetylcysteine (NAC, Invitrogen) treatment, DMSO pre-treated cells were incubated for 1 h with 5 or 10 mM NAC prior to H2O2 treatment. For H2O2 treatment, lymphocytes were washed and resuspended to 1×10^6 cells/mL in RPMI containing the indicated H2O2 (Sigma-Aldrich) concentration for 1 h at 37° C. 5% CO2. Cells were washed with medium and then used for further experiments.\nAll antibodies (see Table 1 in Example 1) and FACS reagents were used according to manufacturers' recommendation, if not stated otherwise. Cells were stained with LIVE/DEAD™ Fixable Aqua Dead Cell Stain Kit (Invitrogen) and then stained with the respective antibodies for 20 min at 4 °C in PBS 1% FBS. Intracellular staining was performed using Fixation/Permeabilization Kit (BD Biosciences) following the manufacturer's instructions. […]"}, "NK cells [3]": {"tested_on": "NK cells", "test": "Degranulation (CD107a) and IFNγ expression of NK cells co-cultured with K562 cells (flow cytometry)", "type": "cell-based, human", "conditions": "for Degranulation capacity (CD107a expression) of NK cells after co-culture with K562: with and without induction of oxidative stress (H2O2)", "protocol": "Lymphocytes were isolated and pre-treated when indicated, with compound and H2O2, as described above. For degranulation/measuring CD107a expression, NK cells were co-cultured with K562 tumour cells at an effector target ratio 1:1 in the presence of anti-CD107a in U-bottom plates. After 2 h, GolgiStop™ and GolgiPlug™ (BD Bioscience) were added and cells were harvested after an additional 4 h co-culture and stained for CD56 and CD3, as described above. For positive control, 25 ng/ml PMA (Sigma Aldrich) and 500 ng/mL Ionomycin (Sigma Aldrich) were added.\nLymphocytes were isolated and pre-treated when indicated, with compounds and/or H2O2, as described above. For degranulation assay, NK cells were co-cultured with K562 cells (E:T ratio 1:1) in the presence of anti-CD107a FITC antibody. After 2 h, GolgiStop™ and GolgiPlug™ (BD Bioscience) were added and cells were harvested after an additional 4 h co-culture and stained for CD56, CD3 and anti-IFNγ, as described above. As a positive control, 25 ng/ml PMA (Sigma Aldrich) and 500 ng/ml Ionomycin (Sigma Aldrich) were added."}, "CD8+ T cells": {"tested_on": "CD8+ T cells", "test": "IFNγ release by expanded healthy donor CD8+ T cells by pre-treatment time", "type": "cell-based, human"}, "ANRU TIL": {"tested_on": "ANRU TIL", "test": "3D killing assay: ANRU TIL on autologous tumour spheroids (Caspase 3/7, live cell imaging)", "type": "cell-based, human", "conditions": "48 h co-culture, vs controls", "protocol": "5000 ANRU tumour cells were seeded per well in Ultra-Low Attachment 96-well plates (Corning Costar) in culture medium containing 2% Matrigel (Corning) for 3 days. 1×10^4AUF pre-treated TIL (see above), and spheroids were co-cultured and monitored for 48 h with the IncuCyte live cell imaging system (Essen Bioscience) in the presence of CellEvent™ Caspase 3/7 Green detection agent (Invitrogen)."}}, "note": "Entries after “also recorded” stand apart in the source; their conditions may differ."}
{"smiles": "CC(=O)OC[C@H]1O[C@@H]([S-])[C@H](OC(C)=O)[C@@H](OC(C)=O)[C@@H]1OC(C)=O.CCP(CC)CC.[Au+]", "note": "[AUF, Auranofin]", "values": [{"measurement": "Time of HMOX1 expression peak in NK cells", "setting": "[1]", "value": 6, "unit": "h"}, {"measurement": "HMOX1 expression in NK cells (fold change vs untreated)", "setting": "[1]; already at 1 h", "value": "pronounced upregulation"}, {"measurement": "Expression of the other Nrf2 target genes in NK cells (fold change vs untreated)", "setting": "[1]; kinetic", "value": "more gradually increased over time"}, {"measurement": "Toxicity / cell death in cancer cells", "setting": "cancer cells", "value": "toxic and induce cell death"}, {"measurement": "Intracellular fluorescence of the ROS indicator in NK cells vs controls", "setting": "NK cells [2]; 72 h after AUF removal", "value": "no differences"}, {"measurement": "Intracellular fluorescence of the ROS indicator in NK cells", "setting": "NK cells [2]; H2O2 challenge 0-48 h after AUF removal", "value": "significantly lower intracellular fluorescence of the ROS indicator"}, {"measurement": "Intracellular ROS levels in NK cells and TIL after H2O2 treatment", "setting": "NK cells [2]; up to 72 h after compound removal", "value": "decreased intracellular ROS levels"}, {"measurement": "Intracellular ROS levels in NK cells", "setting": "NK cells [2]; without addition of H2O2", "value": "significantly reduced intracellular ROS levels"}, {"measurement": "Frequency of CD4+ T cells after AUF pre-treatment", "setting": "KADA TIL", "value": "did not observe any increase"}, {"measurement": "Induction of regulatory T cells (CD3+CD4+FoxP3+)", "setting": "KADA TIL; 0 h or 72 h post pre-treatment", "value": "do not induce regulatory T cells; also recorded: no induction of regulatory T cells could be detected"}, {"measurement": "Difference in protective effect on different NK cell functions (CD107a degranulation vs IFNγ expression)", "setting": "NK cells [3]; during oxidative stress, 6 h co-culture with K562", "value": "no difference"}, {"measurement": "Degranulation capacity (CD107a expression) of NK cells after co-culture with K562", "setting": "NK cells [3]", "value": "protective effect was observed both in the presence or absence of H2O2"}, {"measurement": "Degranulation capacity (CD107a expression) of NK cells after co-culture with K562", "setting": "NK cells [3]; listed as Auranofin", "value": "increased degranulation capacity"}, {"measurement": "Pre-treatment time after which a protective effect was observed in T cells", "setting": "CD8+ T cells", "value": "8 to 12", "unit": "h"}, {"measurement": "Capacity of ANRU TIL to induce apoptosis in spheroid tumour cells (Caspase 3/7)", "setting": "ANRU TIL", "value": "significantly increased capacity to induce apoptosis"}]}
